System: participants with SSc-RP
Assay: Scleroderma Health Assessment Questionnaire (SHAQ): disability indices and visual analog scales
Format: in vivo, human
Details: minus = improvement, two weeks of treatment
Source text: The standard, validated, patient reported outcome measures tool for SSc patients, the Scleroderma Health Assessment Questionnaire (SHAQ), will be used to assess the participant qualify of life. Details are attached in the Appendix. The participant quality of life will be scored, and a disability index calculated for each questionnaire completed by the patient at Screening and each in-clinic visit. The absolute change in participant quality of life from baseline to the end of each dosing period will be calculated similar to frequency data as before.
The SHAQ includes a Raynaud's VAS, which will be reported at screening and each in-clinic visit. The absolute change in Raynaud-VAS, assessed by the participants response to the SHAQ question ‘In the past 7 days, how much have your Raynaud's interfered with your daily activities?’ at baseline and the end of each dosing period will be calculated similar to frequency data as before.
The SHAQ is used to calculate a Disability Index to assess the participant qualify of life. The eight categories assessed by the Disability Index are 1) dressing and grooming, 2) arising, 3) eating, 4) walking, 5) hygiene, 6) reach, 7) grip, and 8) common daily activities. For each of these categories, patients report the amount of difficulty they have in performing two or three specific activities.
There are four possible responses for the Disability Index questions: • Without any difficulty=0 • With some difficulty=1 • With much difficulty=2 • Unable to do=3. • The highest score reported by the patient for any component question of the eight categories determines the score for that category. • If a component question is left blank or the response is too ambiguous to assign a score, then the score for that category is determined by the remaining completed question(s). • If all component questions are blank or if more than one answer is given, then follow up with the respondent is required. • If the respondent's mark is between the response columns, then move it to the closest one. If it's directly between the two, move it to the higher one.
Each of the disability items on the SHAQ has a companion aids/devices variable that is used to record what type(s) of assistance, if any, the participant uses for his/her usual activities. These variables (see below) are coded as follows: • 0=No assistance is needed. • 1=A special device is used by the patient in his/her usual activities. • 2=The patient usually needs help from another person. • 3=The patient usually needs BOTH a special device AND help from another person.
The scoring variables and scoring rules permit the computation of two disability indices, the Standard Disability Index and the Alternative Disability Index.
This question results in a new set of category scores that are computed by adjusting the score for each category, if necessary, based on the patient's use of an aid or device or assistance for that category. If either devices and/or help from another person are checked for a category, the score is set to “2”, unless the score is already “3” (i.e., scores of “0” or “1” are increased to “2”). For example, if the highest score for the dressing category is “1”, and the patient says they use a device for dressing, the computed category score would be “2”. The sum of the computed categories scores is then calculated and divided by the number of categories answered. This gives a score in the 0 to 3 range.
The aid and device variables are not used to calculate the alternative disability index; it is calculated by adding the scores for each of the categories and dividing by the number of categories answered. This gives a score in the 0 to 3 range.
The standard, validated, patient reported outcome measures tool for SSc patients, the SHAQ, was collected at the time points specified in the study schedules (FIG. 2 and FIGS. 4A and 4B) to assess the participant's quality of life. The SHAQ included a Raynaud's VAS that will also be reported separately.

[1] = Cilnidipine 20 mg n = 3, with Tadalafil 5 mg n = 4

COCCOC(=O)C1=C(C)NC(C)=C(C(=O)OC/C=C/c2ccccc2)C1c1cccc([N+](=O)[O-])c1 (centres unmarked) [Cilnidipine 20 mg]
SHAQ Alternative Disability Index, mean % change [1]: −42% | SHAQ Breathing Difficulty, mean % change [1]: −73% | SHAQ Burden of Fingers Ulcers, mean % change [1]: −17% | SHAQ Overall Scleroderma, mean % change [1]: −63% | SHAQ Pain, mean % change [1]: −53% | SHAQ Raynaud’s Difficulty, mean % change [1]: −49% | SHAQ Standard Disability Index, mean % change [1]: −50% | SHAQ Intestinal Difficulty, mean % change (pooled, n = 7) (pooled, n = 7): −45% (pooled,
